Data published in PubChem BioAssay AID256 (DTP/NCI, 2004).
Where “and” joins values, the source holds several entries; their conditions need not be identical. Identical values can stand only once. Inconclusive results and toxic doses are left out. Rule for the calls: active = survival T/C of 150% or more; inactive = T/C below 125% in these data.

Test system: CD2F1 mice, L1210 leukemia ip, survival T/C
Test: NCI In Vivo Anticancer Drug Screen. Data for tumor model L1210 Leukemia (intraperitoneal) in CD2F1 (CDF1) mice
Conditions: endpoint: mean survival time, higher = longer survival
Summary of the method: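 Antitumor effect is scored in animals hosting a serially transplanted tumor. Values compare compound-dosed animals against vehicle-only controls as a simple quotient.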

[1] = dose: 50.0 mg/kg/injection, schedule: Q01DX009 (ip), vehicle: saline
[2] = dose: 100.0 mg/kg/injection, schedule: Q01DX009 (ip), vehicle: saline
[3] = dose: 100.0 mg/kg/injection, schedule: Q04DX002 (ip), vehicle: saline with Tween-80
[4] = dose: 200.0 mg/kg/injection, schedule: Q04DX002 (ip), vehicle: saline with Tween-80
[5] = dose: 400.0 mg/kg/injection, schedule: Q04DX002 (ip), vehicle: saline with Tween-80
[6] = dose: 100.0 mg/kg/injection, schedule: Q04DX003 (ip), vehicle: saline

Measured: T/C

CCCC[P+](CCCC)(CCCC)Cc1ccc([N+](=O)[O-])cc1
inactive: dose: 12.5 mg/kg/injection, schedule: Q01DX009 (ip), vehicle: Klucel (hydroxypropylcellulose) (HPC) 104 % of control | dose: 25.0 mg/kg/injection, schedule: Q01DX009 (ip), vehicle: Klucel (hydroxypropylcellulose) (HPC) 96 % of control | dose: 25.0 mg/kg/injection, schedule: Q04DX003 (ip), vehicle: Klucel (hydroxypropylcellulose) (HPC) 94 % of control | dose: 50.0 mg/kg/injection, schedule: Q01DX001 (ip), vehicle: Klucel (hydroxypropylcellulose) (HPC) 96 % of control | dose: 50.0 mg/kg/injection, schedule: Q01DX009 (ip), vehicle: Klucel (hydroxypropylcellulose) (HPC) 115 % of control | dose: 50.0 mg/kg/injection, schedule: Q04DX002 (ip), vehicle: Klucel (hydroxypropylcellulose) (HPC) 96 % of control | dose: 50.0 mg/kg/injection, schedule: Q04DX003 (ip), vehicle: Klucel (hydroxypropylcellulose) (HPC) 94 % of control

Cc1nc2ccc(N)cc2[nH]1
inactive: [1] 95 % of control | [2] 113 % of control | dose: 200.0 mg/kg/injection, schedule: Q01DX009 (ip), vehicle: saline 95 % of control

CN1CCN(CCCN2C(=O)C3CC=CCC3C2=O)CC1 (stereo unspecified)
inactive: dose: 100.0 mg/kg/injection, schedule: Q01DX001 (ip), vehicle: saline 102 % of control | dose: 200.0 mg/kg/injection, schedule: Q01DX001 (ip), vehicle: saline 93 % of control

O=NO.O=NO.[NH-]C1CCCCC1[NH-].[Pd+2] (stereo unspecified)
inactive: dose: 3.13 mg/kg/injection, schedule: Q04DX003 (ip), vehicle: dextrose 92 % of control | dose: 6.25 mg/kg/injection, schedule: Q04DX003 (ip), vehicle: dextrose 93 % of control | dose: 12.5 mg/kg/injection, schedule: Q01DX001 (ip), vehicle: dextrose 95 % of control | dose: 12.5 mg/kg/injection, schedule: Q04DX003 (ip), vehicle: dextrose 98 % of control | dose: 25.0 mg/kg/injection, schedule: Q01DX001 (ip), vehicle: dextrose 94 % of control | dose: 50.0 mg/kg/injection, schedule: Q01DX001 (ip), vehicle: dextrose 91 % of control | dose: 50.0 mg/kg/injection, schedule: Q04DX003 (ip), vehicle: dextrose 95 % of control | dose: 100.0 mg/kg/injection, schedule: Q01DX001 (ip), vehicle: dextrose 109 % of control | dose: 100.0 mg/kg/injection, schedule: Q04DX003 (ip), vehicle: dextrose 100 % of control

CNC(=S)N(C)c1nc(C)cs1
inactive: [3] 91 % of control | [4] 95 % of control | [5] 103 % of control

CN(C)C(=N)N(C)C
inactive: dose: 25.0 mg/kg/injection, schedule: Q01DX009 (ip), vehicle: saline with Tween-80 98 % of control | dose: 50.0 mg/kg/injection, schedule: Q01DX009 (ip), vehicle: saline with Tween-80 95 % of control | dose: 100.0 mg/kg/injection, schedule: Q01DX009 (ip), vehicle: saline with Tween-80 87 % of control | dose: 100.0 mg/kg/injection, schedule: Q04DX003 (ip), vehicle: saline sonified 101 % of control

CN1CC(NC(=O)N(CCCl)N=O)CC2c3cccc4[nH]cc(c34)CC21 (stereo unspecified)
active: dose: 50.0 mg/kg/injection, schedule: Q01DX001 (ip), vehicle: other 154 % of control | dose: 100.0 mg/kg/injection, schedule: Q01DX001 (ip), vehicle: other 248 % of control | dose: 200.0 mg/kg/injection, schedule: Q01DX001 (ip), vehicle: other 390 % of control
inactive: dose: 12.5 mg/kg/injection, schedule: Q01DX001 (ip), vehicle: other 119 % of control | dose: 400.0 mg/kg/injection, schedule: Q01DX001 (ip), vehicle: other 98 % of control

CCOC(=O)C(CC(C)C)NC(=O)C(Cc1ccc(N(CCCl)CCCl)cc1)NC(C)=O (stereo unspecified)
active: dose: 64.0 mg/kg/injection, schedule: Q01DX001 (ip), vehicle: saline 211 % of control | dose: 128.0 mg/kg/injection, schedule: Q04DX003 (ip), vehicle: saline 170 % of control | dose: 256.0 mg/kg/injection, schedule: Q01DX001 (ip), vehicle: saline 152 % of control
inactive: dose: 0.5 mg/kg/injection, schedule: Q01DX009 (ip), vehicle: saline 95 % of control | dose: 1.0 mg/kg/injection, schedule: Q01DX009 (ip), vehicle: saline 92 % of control | dose: 1.0 mg/kg/injection, schedule: Q04DX003 (ip), vehicle: saline with Tween-80 100 % of control | dose: 2.0 mg/kg/injection, schedule: Q01DX001 (ip), vehicle: saline with Tween-80 102 % of control [middle of 4 runs] | dose: 2.0 mg/kg/injection, schedule: Q01DX009 (ip), vehicle: Klucel (hydroxypropylcellulose) (HPC) 92 % of control and 95 % of control | dose: 2.0 mg/kg/injection, schedule: Q01DX009 (ip), vehicle: saline 94 % of control | dose: 2.0 mg/kg/injection, schedule: Q04DX003 (ip), vehicle: saline with Tween-80 96 % of control and 97 % of control and 105 % of control | dose: 4.0 mg/kg/injection, schedule: Q01DX001 (ip), vehicle: saline with Tween-80 102 % of control [middle of 4 runs] | dose: 4.0 mg/kg/injection, schedule: Q01DX009 (ip), vehicle: Klucel (hydroxypropylcellulose) (HPC) 94 % of control and 95 % of control | dose: 4.0 mg/kg/injection, schedule: Q01DX009 (ip), vehicle: saline 101 % of control | dose: 4.0 mg/kg/injection, schedule: Q04DX003 (ip), vehicle: saline with Tween-80 105 % of control [middle of 4 runs] | dose: 8.0 mg/kg/injection, schedule: Q01DX001 (ip), vehicle: saline with Tween-80 100 % of control and 98 % of control and 102 % of control | dose: 8.0 mg/kg/injection, schedule: Q01DX009 (ip), vehicle: Klucel (hydroxypropylcellulose) (HPC) 94 % of control and 105 % of control | dose: 8.0 mg/kg/injection, schedule: Q01DX009 (ip), vehicle: saline 110 % of control and 95 % of control and 103 % of control | dose: 8.0 mg/kg/injection, schedule: Q04DX003 (ip), vehicle: saline with Tween-80 105 % of control [middle of 5 runs] | dose: 16.0 mg/kg/injection, schedule: Q01DX001 (ip), vehicle: saline with Tween-80 102 % of control [middle of 4 runs] | dose: 16.0 mg/kg/injection, schedule: Q01DX009 (ip), vehicle: Klucel (hydroxypropylcellulose) (HPC) 97 % of control and 111 % of control | dose: 16.0 mg/kg/injection, schedule: Q01DX009 (ip), vehicle: saline 120 % of control and 100 % of control and 121 % of control | dose: 16.0 mg/kg/injection, schedule: Q04DX003 (ip), vehicle: saline 110 % of control | dose: 32.0 mg/kg/injection, schedule: Q01DX001 (ip), vehicle: saline with Tween-80 104 % of control [middle of 4 runs] | dose: 32.0 mg/kg/injection, schedule: Q01DX001 (ip), vehicle: saline 105 % of control | dose: 32.0 mg/kg/injection, schedule: Q01DX009 (ip), vehicle: Klucel (hydroxypropylcellulose) (HPC) 114 % of control | dose: 32.0 mg/kg/injection, schedule: Q01DX009 (ip), vehicle: saline 101 % of control | dose: 32.0 mg/kg/injection, schedule: Q04DX003 (ip), vehicle: saline 118 % of control | dose: 64.0 mg/kg/injection, schedule: Q01DX001 (ip), vehicle: saline with Tween-80 114 % of control and 108 % of control and 98 % of control | dose: 64.0 mg/kg/injection, schedule: Q01DX009 (ip), vehicle: Klucel (hydroxypropylcellulose) (HPC) 119 % of control | dose: 64.0 mg/kg/injection, schedule: Q01DX009 (ip), vehicle: saline 90 % of control | dose: 128.0 mg/kg/injection, schedule: Q01DX001 (ip), vehicle: saline with Tween-80 118 % of control and 104 % of control and 106 % of control | dose: 128.0 mg/kg/injection, schedule: Q01DX009 (ip), vehicle: saline 95 % of control and 105 % of control | dose: 128.0 mg/kg/injection, schedule: Q04DX003 (ip), vehicle: saline with Tween-80 120 % of control and 92 % of control | dose: 256.0 mg/kg/injection, schedule: Q01DX009 (ip), vehicle: saline 103 % of control | dose: 256.0 mg/kg/injection, schedule: Q04DX003 (ip), vehicle: saline with Tween-80 94 % of control and 107 % of control | dose: 256.0 mg/kg/injection, schedule: Q04DX003 (ip), vehicle: saline 120 % of control | dose: 512.0 mg/kg/injection, schedule: Q01DX009 (ip), vehicle: saline 117 % of control

NS(=O)(=O)O
inactive: dose: 12.5 mg/kg/injection, schedule: Q04DX003 (ip), vehicle: saline 98 % of control | dose: 25.0 mg/kg/injection, schedule: Q04DX003 (ip), vehicle: saline 110 % of control | dose: 50.0 mg/kg/injection, schedule: Q04DX003 (ip), vehicle: saline 102 % of control

C[n+]1ccn(CC(=O)c2ccccc2)c1
inactive: dose: 25.0 mg/kg/injection, schedule: Q01DX009 (ip), vehicle: saline 105 % of control | [1] 103 % of control | [2] 105 % of control | [6] 102 % of control

COc1ccccc1NC(=O)Nc1cccc([N+](=O)[O-])c1OC
inactive: [3] 97 % of control | [4] 87 % of control | [5] 94 % of control

CCOC(=O)N1CC2CCC(C1)N2C
inactive: [6] 93 % of control
